Test results taken from the C3SDB collision cross section collection.

What was measured:
[1] = instrument: DT, stepped-field
[2] = instrument: DT, single field, calibrated with Agilent tune mix (Agilent)

CCCCCCCCCCCCC=CC[C@@H](O)[C@H](CO)NC(=O)CCCCCCCCCCCCCCCCC [Cer(36:01)]
collision cross section (N2) ([1]; [M+H-H2O]+): 257.25 Å²

CCCCCCCCCCCCCCCCCCCCCC(=O)N[C@@H](CO)[C@H](O)CCCCCCCCCCCCCCC [Cer(40:00)]
collision cross section (N2) ([1]; [M+H]+): 274.03 Å²

CCCCCCCCCCCCCCCCCCCCCCCC(=O)N[C@@H](CO)[C@H](O)CCCCCCCCCCCCCCC [Cer(42:00)]
collision cross section (N2) ([1]; [M+H]+): 280.05 Å²
collision cross section (N2) ([1]; [M+Na]+): 281.85 Å²

CCCCCCCCCCCCC=CC[C@@H](O)[C@H](CO)NC(=O)CC=CCCCCCCCCCCCCCCCCCCCCC [Cer(43:02)]
collision cross section (N2) ([1]; [M+H-H2O]+): 275.52 Å²

CCCCCCCCCCCCC=CC[C@@H](O)[C@H](CO[C@@H]1O[C@H](CO)[C@@H](O)C(O)C1O)NC(=O)CCCCCCCCCCCCCCC (some centres undefined) [GlcCer(34:01)]
collision cross section (N2) ([1]; [M+Na]+): 278.95 Å²

CCCCCCCCCCCCC=CC[C@@H](O)[C@H](CO[C@@H]1O[C@H](CO)[C@@H](O)C(O)C1O)NC(=O)CC=CCCCCCCCCCCCCCCCC (some centres undefined) [GlcCer(38:02)]
collision cross section (N2) ([1]; [M+H]+): 287.87 Å²
collision cross section (N2) ([1]; [M+Na]+): 287.34 Å²

CCCCCCCCCCCCC=CC[C@@H](O)[C@H](CO[C@@H]1O[C@H](CO)[C@@H](O)C(O)C1O)NC(=O)CC=CCC=CCCCCCCCCCCCCC (some centres undefined) [GlcCer(38:03)]
collision cross section (N2) ([1]; [M+H]+): 284.43 Å²

CCCCCCCCCCCCCCCCCCCCCC(=O)N[C@@H](CO[C@@H]1O[C@H](CO)[C@@H](O)C(O)C1O)[C@H](O)CCCCCCCCCCCCCCC (some centres undefined) [GlcCer(40:00)]
collision cross section (N2) ([1]; [M+Cl]-): 293.17 Å²
collision cross section (N2) ([1]; [M+HCOO]-): 298.07 Å²
collision cross section (N2) ([1]; [M+H]+): 296.24 Å²
collision cross section (N2) ([1]; [M+Na]+): 297.72 Å²

CCCCCCCCCCCCC=CC[C@@H](O)[C@H](CO[C@@H]1O[C@H](CO)[C@@H](O)C(O)C1O)NC(=O)CC=CCCCCCCCCCCCCCCCCCCC (some centres undefined) [GlcCer(41:02)]
collision cross section (N2) ([1]; [M+Na]+): 296.1 Å²

CCCCCCCCCCCCC=CC[C@@H](O)[C@H](CO[C@@H]1O[C@H](CO)[C@@H](O)C(O)C1O)NC(=O)CC=CCC=CCCCCCCCCCCCCCCCCC (some centres undefined) [GlcCer(42:03)]
collision cross section (N2) ([1]; [M+Na]+): 297.28 Å²

CCCCCCCCCCCCC=CC[C@@H](O)[C@H](CO[C@@H]1O[C@H](CO)[C@@H](O)C(O)C1O)NC(=O)CC=CCC=CCCCCCCCCCCCCCCCCCC (some centres undefined) [GlcCer(43:03)]
collision cross section (N2) ([1]; [M+Na]+): 300.75 Å²

CCCCCCCCCCCCC=CC[C@@H](O)[C@H](CO[C@@H]1O[C@H](CO)[C@@H](O)C(O)C1O)NC(=O)CCCCCCCCCCCCCCCCCCCCCCCCCCCCCC (some centres undefined) [GlcCer(49:01)]
collision cross section (N2) ([1]; [M+Na-2H2O]+): 317.53 Å²

CCCCCCCCCCCCC=CC[C@@H](O)[C@H](CO[C@@H]1O[C@H](CO)[C@@H](O)C(O)C1O)NC(=O)CC=CCC=CCC=CCCCCCCCCCCCCCCCCCCCCCC (some centres undefined) [GlcCer(50:04)]
collision cross section (N2) ([1]; [M+H-2H2O]+): 314.25 Å²

CCCCCCCC/C=C\CCCCCCCCCC(=O)OC[C@@H](O)COP(=O)(O)OCCN [LPE(20:1)]
collision cross section (N2) ([2]; [M-H]-): 218.4 Å²

CCCCCCCCCCCCCCCCC(=O)OC[C@@H](O)COP(=O)(O)OC[C@H](N)C(=O)O [LPS(17:0)]
collision cross section (N2) ([2]; [M-H]-): 220.1 Å²

CCCCCCCC/C=C\CCCCCCCC(=O)OC[C@@H](O)COP(=O)(O)OC[C@H](N)C(=O)O [LPS(18:1)]
collision cross section (N2) ([2]; [M+H]+): 224.2 Å²
collision cross section (N2) ([2]; [M+Na]+): 227 Å²
collision cross section (N2) ([2]; [M-H]-): 220.5 Å²

CCCCCCCCCC/C=C\CCCCCCCCCC(=O)OC[C@@H](O)COP(=O)(O)OC[C@H](N)C(=O)O [LPS(22:1)]
collision cross section (N2) ([2]; [M-H]-): 234.2 Å²

CCCCCCCC/C=C\CCCCCCCCCC(=O)O[C@H](COC(=O)CCCCCCCCCCC)COP(=O)(O)O [PA(32:1)]
collision cross section (N2) ([2]; [M-H]-): 249 Å²

CCCCC/C=C\C/C=C\CCCCCCCCCCCC(=O)O[C@H](COC(=O)CCCCCCCCCCCC)COP(=O)(O)O [PA(35:02)]
collision cross section (N2) ([1]; [M+2Na-H]+): 270 Å²

CCCC/C=C\CCCCCCCC(=O)OC[C@H](COP(=O)(O)O)OC(=O)CCCCCCCCCCCCCCCCCCCCC [PA(36:1)]
collision cross section (N2) ([2]; [M+NH4]+): 277.7 Å²
collision cross section (N2) ([2]; [M+Na]+): 275.6 Å²
collision cross section (N2) ([2]; [M-H]-): 261.6 Å²

CC/C=C\C/C=C\C/C=C\C/C=C\CCCCC(=O)O[C@H](COC(=O)CCCCCCC/C=C\CCCCCCCC)COP(=O)(O)O [PA(36:05)]
collision cross section (N2) ([1]; [M+2Na-H]+): 269.3 Å²

CC/C=C\C/C=C\C/C=C\C/C=C\C/C=C\C/C=C\CCC(=O)O[C@H](COC(=O)CCCCCCCCCCCCCCCCC)COP(=O)(O)O [PA(40:06)]
collision cross section (N2) ([1]; [M+2Na-H]+): 280.58 Å²

CCCCCCCCCCCCCCCCCCCC(=O)OC[C@H](COP(=O)([O-])OCC[N+](C)(C)C)OC(=O)CCCCCCCCCCC [PC(32:00)]
collision cross section (N2) ([1]; [M+HCOO]-): 286.82 Å²
collision cross section (N2) ([1]; [M+H]+): 278.4 Å²
collision cross section (N2) ([1]; [M+Na]+): 280.56 Å²

CCCCCCCCCCCCCCCCCCCCCCCC(=O)O[C@H](COC(=O)CCCCCCCCC)COP(=O)([O-])OCC[N+](C)(C)C [PC(34:00)]
collision cross section (N2) ([1]; [M+2Na-H]+): 286.12 Å²

CCCCCCCCCC/C=C\CCCCCCCCCC(=O)O[C@H](COC(=O)CCCCCCCCCCCC)COP(=O)([O-])OCC[N+](C)(C)C [PC(35:1)]
collision cross section (N2) ([2]; [M+H]+): 289.2 Å²

CCCCC/C=C\C=C/CCCCCCCCC(=O)O[C@H](COC(=O)CCCCCCCCCCCCCCCCC)COP(=O)([O-])OCC[N+](C)(C)C [PC(36:02)]
collision cross section (N2) ([1]; [M+2Na-H]+): 290.39 Å²
collision cross section (N2) ([1]; [M+Cl]-): 295.12 Å²
collision cross section (N2) ([1]; [M+HCOO]-): 295.45 Å²
collision cross section (N2) ([1]; [M+H]+): 285.92 Å²
collision cross section (N2) ([1]; [M+K]+): 289.17 Å²
collision cross section (N2) ([1]; [M+Na]+): 288.63 Å²

CC/C=C/C=C/C=C/C=C/CCCCCCCC(=O)O[C@H](COC(=O)CCCCCCCCCCCCCCCCC)COP(=O)([O-])OCC[N+](C)(C)C [PC(36:04)]
collision cross section (N2) ([1]; [M+Cl]-): 293.08 Å²
collision cross section (N2) ([1]; [M+HCOO]-): 292.86 Å²
collision cross section (N2) ([1]; [M+Na]+): 285.05 Å²

CCCCCC/C=C\CCCCCCCCCCCC(=O)O[C@H](COC(=O)CCCCCCCCCCCCCCCCC)COP(=O)([O-])OCC[N+](C)(C)C [PC(38:1)]
collision cross section (N2) ([2]; [M+H]+): 298.8 Å²

CC/C=C\C/C=C\C/C=C\C/C=C\C/C=C\CCCCCC(=O)O[C@H](COC(=O)CCCCCCCCCCCCCCC)COP(=O)([O-])OCC[N+](C)(C)C [PC(38:05)]
collision cross section (N2) ([1]; [M+Cl]-): 297.1 Å²
collision cross section (N2) ([1]; [M+HCOO]-): 297.3 Å²

CC/C=C\C/C=C\C/C=C\C/C=C\C/C=C\CCCCCC(=O)O[C@H](COC(=O)CCCCCCCCCCCCCCCCC)COP(=O)([O-])OCC[N+](C)(C)C [PC(40:05)]
collision cross section (N2) ([1]; [M+Na]+): 295.77 Å²

CCCCCCCCCCCCCCCCCCCC(=O)O[C@H](COC(=O)CCCCCCCCCCC)COP(=O)(O)OCCN [PE(32:0)]
collision cross section (N2) ([2]; [M+H]+): 271.4 Å²

CCCCCCCCCCCCCCCCCCCCCC(=O)OC[C@H](COP(=O)(O)OCCN)OC(=O)CCCCCCCCCCC [PE(34:0)]
collision cross section (N2) ([2]; [M+H]+): 277.5 Å²

CCCCCCCC/C=C\CCCCCCCC(=O)O[C@H](COC(=O)CCCCCCCCCCCCCCCCC)COP(=O)(O)OCCN [PE(36:01)]
collision cross section (N2) ([1]; [M+2Na-H]+): 283.74 Å²
collision cross section (N2) ([1]; [M+H]+): 277.02 Å²
collision cross section (N2) ([1]; [M+Na]+): 282.21 Å²
collision cross section (N2) ([1]; [M-H]-): 273.62 Å²

CCCCC/C=C\CCCCCCCC(=O)OC[C@H](COP(=O)(O)OCCN)OC(=O)CCCCCCCCCCCCCCCCCCCCC [PE(37:01)]
collision cross section (N2) ([1]; [M+2Na-H]+): 286.74 Å²
collision cross section (N2) ([1]; [M+Na]+): 284.35 Å²

CCCCCCCC/C=C\CCCCCCCC(=O)OC[C@H](COP(=O)(O)OCCN)OC(=O)CCCCCCC/C=C\CCCCCCCCC [PE(37:02)]
collision cross section (N2) ([1]; [M+2Na-H]+): 285.18 Å²
collision cross section (N2) ([1]; [M+Na]+): 282.21 Å²

CCCCC/C=C\C/C=C\CCCCCCCCCCCC(=O)O[C@H](COC(=O)CCCCCCCCCCCCCCC)COP(=O)(O)OCCN [PE(38:02)]
collision cross section (N2) ([1]; [M+2Na-H]+): 288.8 Å²

CC/C=C\C/C=C\C/C=C\C/C=C\CCCCC(=O)O[C@H](COC(=O)CCCCCCCCCCCCCCCCCCC)COP(=O)(O)OCCN [PE(38:04)]
collision cross section (N2) ([1]; [M+2Na-H]+): 284.96 Å²
collision cross section (N2) ([1]; [M+K]+): 284.45 Å²
collision cross section (N2) ([1]; [M-H]-): 276.04 Å²

CCCCC/C=C\C/C=C\CCCCCCCC(=O)OC[C@H](COP(=O)(O)O[C@H]1C(O)C(O)C(O)[C@@H](O)C1O)OC(=O)CCCCCCCCC/C=C\CCCCCCCCCC (some centres undefined) [PI(40:3)]
collision cross section (N2) ([2]; [M-H]-): 299.2 Å²

CC/C=C\C/C=C\C/C=C\C/C=C\C/C=C\C/C=C\CCC(=O)OC[C@@H](COC(=O)CCCCCCC/C=C\CCCCCCCCC)OC(=O)CCCCCCC/C=C\CCCCCCCCC [TG(60:8)]
collision cross section (N2) ([2]; [M+NH4]+): 338.1 Å²

CC/C=C\C/C=C\C/C=C\C/C=C\C/C=C\CCCCCC(=O)OC[C@@H](COC(=O)CCCC/C=C\C/C=C\C/C=C\C/C=C\CC)OC(=O)CCCCCC/C=C\C/C=C\C/C=C\CCCCC [TG(60:12)]
collision cross section (N2) ([2]; [M+NH4]+): 331.7 Å²

CCCCC/C=C\C/C=C\CCCCCCCC(=O)OC[C@H](COC(=O)CCCCCCCCC/C=C\CCCCCCCCCC)OC(=O)CCCCCCCCC/C=C\CCCCCCCCCC [TG(62:4)]
collision cross section (N2) ([2]; [M+NH4]+): 345.8 Å²

CC/C=C\C/C=C\C/C=C\CCCCCCCC(=O)OC[C@H](COC(=O)CCCCCCCCCCC/C=C\C/C=C\CCCCC)OC(=O)CCCCCCCCC/C=C\CCCCCCCCCC [TG(62:6)]
collision cross section (N2) ([2]; [M+NH4]+): 344.1 Å²

CC/C=C\C/C=C\C/C=C\C/C=C\C/C=C\C/C=C\CCC(=O)OC[C@@H](COC(=O)CCCC/C=C\C/C=C\C/C=C\C/C=C\CC)OC(=O)CCCCCCCC/C=C\C/C=C\C/C=C\CCCCC [TG(62:13)]
collision cross section (N2) ([2]; [M+NH4]+): 335.7 Å²
